Measurements from patent US11578072B2, “Spiro-lactam NMDA receptor modulators and uses thereof” (Aptinyx Inc., priority 2018, dated 2023).

Legend:
[1] = target: T1, NMDAR2C (Homo sapiens, UniProt Q14957); assay: NMDAR agonist assay, [3H]MK-801 binding, NMDAR2C expressing HEK cell membranes; format: biochemical; details: 50 μM glutamate
T1 construct: expressed in transfected cells; host or cells: HEK cells (membrane extract)
Experimental: Assays were conducted as described by Moskal et al., “GLYX-13: a monoclonal antibody-derived peptide that acts as an N-methyl-D-aspartate receptor modulator,” Neuropharmacology, 49, 1077-87, 2005. These studies were designed to determine if the test compounds act to facilitate NMDAR activation in NMDAR2A, NMDAR2B, NMDAR2C or NMDAR2D expressing HEK cell membranes as measured by increases in [3H]MK-801 binding.
In the assay, 300 μg of NMDAR expressing HEK cell membrane extract protein was preincubated for 15 minutes at 25° C. in the presence of saturating concentrations of glutamate (50 μM) and varying concentrations of test compound (1×10^−15M-1×10^−7M), or 1 mM glycine. Following the addition of 0.3 μCi of [3H]MK-801 (22.5 Ci/mmol), reactions were again incubated for 15 minutes at 25° C. (nonequilibrium conditions). […]
In analyzing the data, the DPM (disintegrations per minute) of [3H]MK-801 remaining on the filter were measured for each concentration of test compound or for 1 mM glycine. […] The baseline value was determined from the best fit curve of the DPM values modeled using the GraphPad program and the log(agonist) vs. response(three parameters) algorithm was then subtracted from all points in the dataset. The % maximal [3H]MK-801 binding was then calculated relative to that of 1 mM glycine: all baseline subtracted DPM values were divided by the average value for 1 mM glycine. […]

[2] = Microsomal stability (Human); format: in vitro ADME; details: human microsomes, after 60 minutes
Experimental: Microsomal stability of disclosed compounds was investigated. The following table indicates the percent of compound remaining after 60 minutes.

[3] = tested on: Sprague Dawley rats; assay: Bennett nerve injury assay (mechanical analgesia, paw withdrawal threshold); format: in vivo
Experimental: The Bennett model of mechanical analgesia is used to assess the analgesic effects of compounds as measured by paw withdrawal threshold. Bennett G J, Xie Y K, “A peripheral mononeuropathy in rat that produces disorders of pain sensation like those seen in man,” Pain 33:87-107, 1988. […] Vehicle animals receive the surgery and then receive vehicle rather than test compound. Animals were tested 1 hr, 24 h and 1 wk post-test compound or vehicle administration.
Male 2-3 month old Sprague Dawley rats were used. Harlan was the supplier for all studies. Rats were housed in Lucite cages with aspen wood chip bedding, maintained on a 12:12 light:dark cycle (lights on at 5 AM), and given ad libitum access to Purina lab chow (USA) and tap water throughout the study.
Rats were anesthetized using inhaled isoflurane (2.5%). Sciatic nerve chronic constriction nerve injury surgery was performed as previously described (Bennett and Xie, 1988). An incision (˜1.5 cm in length) was made with a scalpel blade dorsally through skin on the right hind limb, parallel and posterior to femur. Using a small pointed hemostat, the biceps femoris and gluteus superficialis muscles were separated. Using curved blunt forceps, the common sciatic nerve was isolated and exposed. For the mechanical analgesia studies, the whole sciatic nerve was ligated. Using hemostats/forceps and chromic gut (5-0), the nerve was loosely ligated with a square knot; 3 ligatures, 1 mm apart were placed on the nerve. […] Testing occurred approximately 2 weeks post-surgery.
During testing, rats were acclimated to the surface of a suspended wire mesh grid (1 cm×1 cm, with the wire being 0.3 cm in diameter) for 15-20 min. Starting from the smallest, each Von Frey filament was pressed perpendicularly to the plantar surface of the affected (ipsilateral) hind paw until slightly bent and then held for 6 second. If an obvious hind paw withdrawal or a flinching behavior immediately after the withdrawal of the filament was not observed, the next larger filament was used in the same manner. In case of a response, a lower filament was used. This was repeated until six responses were collected.
For all studies, animals were baselined prior to study start to test for allodynia (defined as a paw withdrawal threshold under 5). A subset of animals was tested with gabapentin (150 mg/kg, PO) to ensure at least 50% analgesia. Once it was confirmed animals were ready for study initiation, animals were balanced across groups. All study investigators were blind to treatment conditions. Animals were dosed with 0.1, 1 or 10 mg/kg of test compound via oral gavage (PO), control sets of animals were dosed with gabapentin (150 mg/kg, PO) or vehicle (0.5% Na-CMC in 0.9% sterile saline, PO). Testing occurred 1 h post-dosing with animals retested 24 hrs and 1 week post-dosing. The percent analgesia calculations for each animal were made using the following equation: % analgesia=[(log(x)−y)/((log (z)−y)]*100, where x=the paw withdrawal threshold for the drug-treated animal in grams, y=the average of the log(x) values for the vehicle treated group, and z=the paw withdrawal threshold for naïve animals in grams (historical value of 15 used). The results for Compound AD, where the percentage of analgesia is measured at 1 hour, 24 hours, and 1 week after compound administration are as follows: for 0.1 mg/kg dose: 38.7% at 1 h, 34.5% at 24 h, and 19.7% at 1 wk; for 1 mg/kg dose: 24.1% at 1 h, 26.5% at 24 h, and 13.2% at 1 wk; and for 10 mg/kg dose: 61.2% at 1 h, 45.1% at 24 h, and 39.5% at 1 wk.

T1 sequence (Q14957 20-1233, species assumed, other chains not shown): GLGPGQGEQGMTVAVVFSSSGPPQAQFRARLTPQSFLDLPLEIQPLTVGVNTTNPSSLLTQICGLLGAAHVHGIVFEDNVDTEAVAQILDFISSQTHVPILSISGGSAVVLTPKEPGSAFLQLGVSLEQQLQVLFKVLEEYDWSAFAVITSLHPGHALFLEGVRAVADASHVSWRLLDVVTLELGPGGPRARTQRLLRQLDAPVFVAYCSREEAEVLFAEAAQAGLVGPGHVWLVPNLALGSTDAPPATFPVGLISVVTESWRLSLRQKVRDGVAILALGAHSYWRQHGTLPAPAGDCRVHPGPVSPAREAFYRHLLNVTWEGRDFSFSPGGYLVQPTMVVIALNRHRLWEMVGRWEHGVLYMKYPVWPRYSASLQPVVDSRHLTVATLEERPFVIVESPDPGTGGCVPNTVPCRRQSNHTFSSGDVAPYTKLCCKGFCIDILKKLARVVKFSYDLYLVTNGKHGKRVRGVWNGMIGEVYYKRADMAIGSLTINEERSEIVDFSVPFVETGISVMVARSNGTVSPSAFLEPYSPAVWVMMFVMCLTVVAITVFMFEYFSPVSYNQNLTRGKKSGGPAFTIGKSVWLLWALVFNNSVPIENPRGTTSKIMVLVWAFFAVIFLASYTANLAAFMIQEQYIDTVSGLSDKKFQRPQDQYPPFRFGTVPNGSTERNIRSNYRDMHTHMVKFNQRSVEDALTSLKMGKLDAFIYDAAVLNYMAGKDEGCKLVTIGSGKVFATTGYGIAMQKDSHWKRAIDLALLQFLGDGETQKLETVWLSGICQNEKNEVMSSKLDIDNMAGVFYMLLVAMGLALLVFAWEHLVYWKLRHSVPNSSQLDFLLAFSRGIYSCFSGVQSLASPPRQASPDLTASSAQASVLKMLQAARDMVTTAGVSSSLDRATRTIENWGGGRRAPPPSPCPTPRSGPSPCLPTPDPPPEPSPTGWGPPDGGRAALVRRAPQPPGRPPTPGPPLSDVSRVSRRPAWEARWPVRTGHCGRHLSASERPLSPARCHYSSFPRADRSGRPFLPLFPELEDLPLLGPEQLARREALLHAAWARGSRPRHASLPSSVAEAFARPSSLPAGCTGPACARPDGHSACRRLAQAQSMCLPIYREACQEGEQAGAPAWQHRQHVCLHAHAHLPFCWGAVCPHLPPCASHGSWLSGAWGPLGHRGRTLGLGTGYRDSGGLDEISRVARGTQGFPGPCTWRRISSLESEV

NMDAR2C A: % maximal [3H]MK-801 binding relative to 1 mM glycine [1]: + (<100%=+)
EC50 ([1]; read-out: NMDAR2C B: log EC50 (converted)): < 1 nM
Microsomal (Human): percent of compound remaining [2]: 100%
Structure (SMILES): CC(C)C(=O)N1CCC2(CCCNC2=O)CC1 [Compound AD, 9-isobutyryl-2,9-diazaspiro[5.5]undecan-1-one]
% analgesia ([3]; 0.1 mg/kg PO, 1 wk): 19.7%
% analgesia ([3]; 0.1 mg/kg PO, 1 h): 38.7%
% analgesia ([3]; 0.1 mg/kg PO, 24 h): 34.5%
% analgesia ([3]; 1 mg/kg PO, 1 wk): 13.2%
% analgesia ([3]; 1 mg/kg PO, 1 h): 24.1%
% analgesia ([3]; 1 mg/kg PO, 24 h): 26.5%
% analgesia ([3]; 10 mg/kg PO, 1 wk): 39.5%
% analgesia ([3]; 10 mg/kg PO, 1 h): 61.2%
% analgesia ([3]; 10 mg/kg PO, 24 h): 45.1%
